From patent US8871754B2, “Compounds and compositions for the treatment of parasitic diseases” (IRM LLC, priority 2012, dated 2014)
Where two headings read alike, the source gives them in different places.

Test system: P. falciparum (NF54 or 3D7 strain) in infected human erythrocytes
Assay: Assay for P. falciparum proliferation in infected human blood cells (SYBR Green)
Assay type: cell-based
Conditions: Plasmodium falciparum, Erythrocyte, read-out: EC50 (nM), inhibitory efficacy in delaying P. falciparum proliferation in infected human blood cells
Protocol: Assay for P. falciparum Proliferation in Infected Human Blood Cells
Compounds of the invention can be assayed to measure their capacity to inhibit proliferation of P. falciparum parasitemia in infected red blood cells. This parasite proliferation assay measures the increase in parasite DNA content using a DNA intercalating dye, SYBR Green® (INVITROGEN®) which has a high affinity for double stranded DNA.
NF54 or 3D7 P. falciparum strain is grown in complete culturing media until parasitemia reaches 3% to 8% with O+ human erythrocytes. […] 20 μl of screening media is dispensed into 384 well assay plates. 50 nl of compounds of the invention (in DMSO), including antimalarial controls (mefloquine, pyrimethamine and artemisinin), are then transferred into the assay plates, as well as DMSO alone to serve as a negative control for inhibition. Then 30 μl of a suspension of a NF54 or 3D7 P. falciparum infected erythrocytes in screening media is dispensed into the assay plates such that the final hematocrit is 2.5% with a final parasitemia of 0.3%. The plates are placed in a 37° C. incubator for 72 hours in a low oxygen environment containing 93% N2, 4% CO2, and 3% O2 gas mixture. 10 μl of lysis buffer (saponin, triton-X, EDTA) containing a 10× solution of SYBR Green I® in RPMI media is dispensed into the plates. The plates are lidded and kept at room temperature overnight for the lysis of the infected red blood cells. The fluorescence intensity is measured (excitation […], emission 530 nm) using the Envision™ system (Perkin Elmer). The percentage inhibition of 50%, […], is calculated for each compound.

[1] = NF54 or 3D7 strain, 72 hours, SYBR Green fluorescence

Structure (SMILES): CN(Cc1ccn2ncc(-c3ccc(C(F)(F)F)cc3)c2c1)c1ccc(F)cc1 [Example 2, 4-fluoro-N-methyl-N-((3-(4-(trifluoromethyl)phenyl)pyrazolo[1,5-a]pyridine-5-yl)methyl)aniline]
- EC50 [1]: 342 nM

Structure (SMILES): CN(C(=O)c1ccn2ncc(-c3ccc(C(F)(F)F)cc3)c2c1)c1ccc(Cl)cc1 [Example 3, N-(4-chlorophenyl)-N-methyl-3-(4-(trifluoromethyl)phenyl)pyrazolo[1,5-a]pyridine-5-carboxamide]
- EC50 [1]: 94 nM

Structure (SMILES): CN(C(=O)c1ccn2ncc(-c3ccc(C(F)(F)F)cc3)c2c1)c1ccc(F)cc1 [Example 4, N-(4-fluorophenyl)-N-methyl-3-(4-(trifluoromethyl)phenyl)pyrazolo[1,5-a]pyridine-5-carboxamide]
- EC50 [1]: 46 nM

Structure (SMILES): Cc1ccc(N(C)C(=O)c2ccn3ncc(-c4ccc(C(F)(F)F)cc4)c3c2)nc1 [Example 5, N-methyl-N-(5-methylpyridin-2-yl)-3-(4-(trifluoromethyl)phenyl)pyrazolo[1,5-a]pyridine-5-carboxamide]
- EC50 [1]: 88 nM

Structure (SMILES): CN(Cc1ccn2ncc(-c3ccc(C(F)(F)F)cc3)c2c1)c1ccc(Cl)cc1 [Example 6, 4-chloro-N-methyl-N-((3-(4-(trifluoromethyl)phenyl)pyrazolo[1,5-a]pyridine-5-yl)methyl)aniline]
- EC50 [1]: 284 nM

Structure (SMILES): Cc1ccc(N(C)Cc2ccn3ncc(-c4ccc(C(F)(F)F)cc4)c3c2)nc1 [Example 7, N,5-dimethyl-N-((3-(4-(trifluoromethyl)phenyl)pyrazolo[1,5-a]101yridine-5-yl)methyl)pyridine-2-amine]
- EC50 [1]: 975 nM

Structure (SMILES): Fc1ccc(OCc2ccn3ncc(-c4ccc(C(F)(F)F)cc4)c3c2)cc1 [Example 8, 5-((4-fluorophenoxy)methyl)-3-(4-(trifluoromethyl)phenyl)pyrazolo[1,5-a]pyridine]
- EC50 [1]: 532 nM

Structure (SMILES): COCCN(C(=O)c1ccn2ncc(-c3ccc(C(F)(F)F)cc3)c2c1)c1ccc(C#N)cc1 [Example 9, N-(4-cyanophenyl)-N-(2-methoxyethyl)-3-(4-(trifluoromethyl)phenyl)pyrazolo[1,5-a]pyridine-5-carboxamide]
- EC50 [1]: 6 nM

Structure (SMILES): CN(C)CCN(C(=O)c1ccn2ncc(-c3ccc(C(F)(F)F)cc3)c2c1)c1ccc(C#N)cc1 [Example 10, N-(4-cyanophenyl)-N-(2-(dimethylamino)ethyl)-3-(4-(trifluoromethyl)phenyl)pyrazolo[1,5-a]pyridine-5-carboxamide]
- EC50 [1]: 7 nM

Structure (SMILES): N#Cc1ccc(N(CC2CCOCC2)C(=O)c2ccn3ncc(-c4ccc(C(F)(F)F)cc4)c3c2)cc1 [Example 11, N-(4-cyanophenyl)-N-((tetrahydro-2H-pyran-4-yl)methyl)-3-(4-(trifluoromethyl)phenyl)pyrazolo[1,5-a]pyridine-5-carboxamide]
- EC50 [1]: 6 nM

Structure (SMILES): CS(=O)(=O)c1ccc(N(CC2CCOCC2)C(=O)c2ccn3ncc(-c4ccc(C(F)(F)F)cc4)c3c2)cc1 [Example 12, N-(4-(methylsulfonyl)phenyl)-N-((tetrahydro-2H-pyran-4-yl)methyl)-3-(4-(trifluoromethyl)phenyl)pyrazolo[1,5-a]pyridine-5-carboxamide]
- EC50 [1]: 9 nM

Structure (SMILES): Cc1cncc(N(C)C(=O)c2ccn3ncc(-c4ccc(C(F)(F)F)cc4)c3c2)c1 [Example 14, N-methyl-N-(5-methylpyridin-3-yl)-3-(4-(trifluoromethyl)phenyl)pyrazolo[1,5-a]pyridine-5-carboxamide]
- EC50 [1]: 134 nM

Structure (SMILES): Cc1ccc(OCc2ccn3ncc(-c4ccc(C(F)(F)F)cc4)c3c2)nc1 [Example 15, 5-(((5-methylpyridin-2-yl)oxy)methyl)-3-(4-(trifluoromethyl)phenyl)pyrazolo[1,5-a]pyridine]
- EC50 [1]: 2320 nM

Structure (SMILES): Fc1ccc(CCc2ccn3ncc(-c4ccc(C(F)(F)F)cc4)c3c2)cc1 [Example 16, 5-(4-fluorophenethyl)-3-(4-(trifluoromethyl)phenyl)pyrazolo[1,5-a]pyridine]
- EC50 (72 h): 477 nM
